Target: T1, Mineralocorticoid receptor (Homo sapiens) (UniProt P08235)
T1 sequence (whole entry): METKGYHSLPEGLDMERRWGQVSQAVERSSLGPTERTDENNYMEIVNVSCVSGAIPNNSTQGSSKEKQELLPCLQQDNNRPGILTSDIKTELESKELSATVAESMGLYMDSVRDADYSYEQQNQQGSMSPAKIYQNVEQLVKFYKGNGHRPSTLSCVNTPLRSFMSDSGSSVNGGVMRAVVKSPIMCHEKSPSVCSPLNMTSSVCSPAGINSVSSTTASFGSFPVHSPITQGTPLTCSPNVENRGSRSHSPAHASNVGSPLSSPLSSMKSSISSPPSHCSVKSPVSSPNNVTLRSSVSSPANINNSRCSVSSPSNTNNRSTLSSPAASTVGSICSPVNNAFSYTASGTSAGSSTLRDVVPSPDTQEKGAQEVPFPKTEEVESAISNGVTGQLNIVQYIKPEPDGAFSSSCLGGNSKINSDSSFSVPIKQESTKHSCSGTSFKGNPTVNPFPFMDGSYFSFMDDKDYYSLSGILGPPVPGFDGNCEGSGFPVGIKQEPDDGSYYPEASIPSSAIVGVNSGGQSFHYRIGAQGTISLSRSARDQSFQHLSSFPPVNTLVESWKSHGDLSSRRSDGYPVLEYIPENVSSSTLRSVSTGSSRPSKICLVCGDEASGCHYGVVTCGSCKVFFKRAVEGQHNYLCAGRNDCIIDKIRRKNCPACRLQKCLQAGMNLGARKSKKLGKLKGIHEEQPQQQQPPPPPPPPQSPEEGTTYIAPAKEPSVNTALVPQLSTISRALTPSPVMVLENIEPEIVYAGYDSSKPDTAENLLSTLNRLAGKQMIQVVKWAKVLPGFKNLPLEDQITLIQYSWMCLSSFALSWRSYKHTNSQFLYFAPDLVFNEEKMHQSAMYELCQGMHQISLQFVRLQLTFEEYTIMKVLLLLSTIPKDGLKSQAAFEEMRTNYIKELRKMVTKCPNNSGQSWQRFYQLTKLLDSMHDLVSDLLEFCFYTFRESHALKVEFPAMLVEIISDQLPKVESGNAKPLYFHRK
Test: Displacement of [3H]aldosterone from mineralocorticoid receptor of rabbit kidney
Conditions: Oryctolagus cuniculus; target entry is the homologue from another species

Row | SMILES | RBA
1 | C=C=C[C@H]1C[C@@]2(C)C(CC[C@@]23CCC(=O)O3)C2CCC3=CC(=O)CCC3=C21 (some centres undefined) | 110%
2 | C[C@]12C[C@H](CCCO)C3=C4CCC(=O)C=C4CCC3C1CC[C@@]21CCC(=O)O1 (some centres undefined) | < 0.1%
3 | CC(C)(C)OCCC[C@H]1C[C@@]2(C)C(CC[C@@]23CCC(=O)O3)C2CCC3=CC(=O)CCC3=C21 (some centres undefined) | < 0.1%
4 | CC(=O)S[C@@H]1CC2=CC(=O)CC[C@]2(C)[C@H]2CC[C@@]3(C)[C@@H](CC[C@@]34CCC(=O)O4)[C@H]12 | 4%
5 | CC(=O)S[C@@H]1CC2=CC(=O)C=C[C@]2(C)[C@H]2CC[C@@]3(C)[C@@H]([C@@H]4C[C@@H]4[C@@]34CCC(=O)O4)[C@H]12 | 21%
6 | C/C=C1\C[C@@]2(C)C(CC[C@@]23CCC(=O)O3)C2CCC3=CC(=O)CCC3=C12 (some centres undefined) | 7%
7 | C[C@]12CCC(=O)C=C1C=C[C@@H]1[C@@H]2CC[C@@]2(C)[C@H]1CC[C@@]21CCC(=O)O1 | 1%
8 | C[C@]12CCC3=C4CCC(=O)C=C4CCC3C1CC[C@@]21CCC(=O)O1 (some centres undefined) | 13%

The remaining lines, values ahead:

Row | RBA | SMILES
9 | 100% | C[C@]12CCC(=O)C=C1CC[C@@H]1[C@@H]2[C@@H](O)C[C@]2(C=O)[C@@H](C(=O)CO)CC[C@@H]12
10 | 20% | C[C@@H]1C[C@H]2[C@@H]3CCC4=CC(=O)C=C[C@]4(C)[C@@]3(F)[C@@H](O)C[C@]2(C)[C@@]1(O)C(=O)CO
11 | 2% | C=C/C=C1\C[C@@]2(C)C(CC[C@@]23CCC(=O)O3)C2CCC3=CC(=O)CCC3=C12 (some centres undefined)
12 | 0.5% | COCCC[C@H]1C[C@@]2(C)C(CC[C@@]23CCC(=O)O3)C2CCC3=CC(=O)CCC3=C21 (some centres undefined)
13 | 14% | C=C[C@H]1C[C@@]2(C)C(CC[C@@]23CCC(=O)O3)C2CCC3=CC(=O)CCC3=C21 (some centres undefined)
14 | 6% | C[C@H]1C[C@@]2(C)C(CC[C@@]23CCC(=O)O3)C2CCC3=CC(=O)CCC3=C21 (some centres undefined)

— ChEMBL document CHEMBL1126937, “Synthesis of new 11 beta-substituted spirolactone derivatives. Relationship with affinity for mineralocorticoid and glucocorticoid receptors” (J Med Chem, 1993)
